# Reference: ChEMBL document CHEMBL5724914, “Linking interpersonal differences in gut microbiota composition and drug biotransformation activity” (2024)
# Details: human gut metagenome, 24 h, 2 µM
# Also: call rule not given here.
row,Bacterial Biotransformation,SMILES
1,Compound metabolized,CC(C)c1nc(CN(C)C(=O)N[C@H](C(=O)N[C@@H](Cc2ccccc2)C[C@H](O)[C@H](Cc2ccccc2)NC(=O)OCc2cncs2)C(C)C)cs1 [RITONAVIR]
2,Compound NOT metabolized,NC12CC3CC(CC(C3)C1)C2 [AMANTADINE]

# Assay: (§1) The drug is tested on WLS-039 corresponding to human gut metagenome with ENA study accession number: PRJEB37062 and ENA sample accession number: ERS12561746 for biotransformation under anaerobic condition. The drug concentrations were measured over 9 timepoints collected between 0 and 24 hours of incubation by liquid-chromatography-coupled mass spectrometry (LC–MS)
# Details: 2 µM
row,Bacterial Biotransformation,SMILES
1,Compound metabolized,CC(C)c1nc(CN(C)C(=O)N[C@H](C(=O)N[C@@H](Cc2ccccc2)C[C@H](O)[C@H](Cc2ccccc2)NC(=O)OCc2cncs2)C(C)C)cs1 [RITONAVIR]
2,Compound NOT metabolized,NC12CC3CC(CC(C3)C1)C2 [AMANTADINE]

# Details: human gut metagenome, 24 h, 2 µM
# Remark: another data set of the same source
row,Bacterial Biotransformation,SMILES
1,Compound NOT metabolized,CC(C)c1nc(CN(C)C(=O)N[C@H](C(=O)N[C@@H](Cc2ccccc2)C[C@H](O)[C@H](Cc2ccccc2)NC(=O)OCc2cncs2)C(C)C)cs1 [RITONAVIR]
2,Compound NOT metabolized,NC12CC3CC(CC(C3)C1)C2 [AMANTADINE]

# Assay: as §1, with “WLS-052” for “WLS-039”, “ERS12561747” for “ERS12561746”
# Details: 2 µM
row,Bacterial Biotransformation,SMILES
1,Compound metabolized,CC(C)c1nc(CN(C)C(=O)N[C@H](C(=O)N[C@@H](Cc2ccccc2)C[C@H](O)[C@H](Cc2ccccc2)NC(=O)OCc2cncs2)C(C)C)cs1 [RITONAVIR]
2,Compound NOT metabolized,NC12CC3CC(CC(C3)C1)C2 [AMANTADINE]

# Details: human gut metagenome, 24 h, 2 µM
# Remark: another data set of the same source
row,Bacterial Biotransformation,SMILES
1,Compound NOT metabolized,CC(C)c1nc(CN(C)C(=O)N[C@H](C(=O)N[C@@H](Cc2ccccc2)C[C@H](O)[C@H](Cc2ccccc2)NC(=O)OCc2cncs2)C(C)C)cs1 [RITONAVIR]
2,Compound NOT metabolized,NC12CC3CC(CC(C3)C1)C2 [AMANTADINE]

# Details: human gut metagenome, 24 h, 2 µM
# Remark: another data set of the same source
row,Bacterial Biotransformation,SMILES
1,Compound metabolized,CC(C)c1nc(CN(C)C(=O)N[C@H](C(=O)N[C@@H](Cc2ccccc2)C[C@H](O)[C@H](Cc2ccccc2)NC(=O)OCc2cncs2)C(C)C)cs1 [RITONAVIR]
2,Compound NOT metabolized,NC12CC3CC(CC(C3)C1)C2 [AMANTADINE]

# Assay: as §1, with “WLS-098” for “WLS-039”, “ERS12561754” for “ERS12561746”
# Details: 2 µM
row,Bacterial Biotransformation,SMILES
1,Compound metabolized,CC(C)c1nc(CN(C)C(=O)N[C@H](C(=O)N[C@@H](Cc2ccccc2)C[C@H](O)[C@H](Cc2ccccc2)NC(=O)OCc2cncs2)C(C)C)cs1 [RITONAVIR]
2,Compound NOT metabolized,NC12CC3CC(CC(C3)C1)C2 [AMANTADINE]

# Assay: as §1, with “WLS-027” for “WLS-039”, “ERS12561744” for “ERS12561746”
# Details: 2 µM
row,Bacterial Biotransformation,SMILES
1,Compound metabolized,CC(C)c1nc(CN(C)C(=O)N[C@H](C(=O)N[C@@H](Cc2ccccc2)C[C@H](O)[C@H](Cc2ccccc2)NC(=O)OCc2cncs2)C(C)C)cs1 [RITONAVIR]
2,Compound NOT metabolized,NC12CC3CC(CC(C3)C1)C2 [AMANTADINE]

# Details: human gut metagenome, 24 h, 2 µM
# Remark: another data set of the same source
row,Bacterial Biotransformation,SMILES
1,Compound metabolized,CC(C)c1nc(CN(C)C(=O)N[C@H](C(=O)N[C@@H](Cc2ccccc2)C[C@H](O)[C@H](Cc2ccccc2)NC(=O)OCc2cncs2)C(C)C)cs1 [RITONAVIR]
2,Compound NOT metabolized,NC12CC3CC(CC(C3)C1)C2 [AMANTADINE]

# Details: human gut metagenome, 24 h, 2 µM
# Remark: another data set of the same source
row,Bacterial Biotransformation,SMILES
1,Compound NOT metabolized,CC(C)c1nc(CN(C)C(=O)N[C@H](C(=O)N[C@@H](Cc2ccccc2)C[C@H](O)[C@H](Cc2ccccc2)NC(=O)OCc2cncs2)C(C)C)cs1 [RITONAVIR]
2,Compound NOT metabolized,NC12CC3CC(CC(C3)C1)C2 [AMANTADINE]

# Details: human gut metagenome, 24 h, 2 µM
# Remark: another data set of the same source
row,Bacterial Biotransformation,SMILES
1,Compound metabolized,CC(C)c1nc(CN(C)C(=O)N[C@H](C(=O)N[C@@H](Cc2ccccc2)C[C@H](O)[C@H](Cc2ccccc2)NC(=O)OCc2cncs2)C(C)C)cs1 [RITONAVIR]
2,Compound NOT metabolized,NC12CC3CC(CC(C3)C1)C2 [AMANTADINE]

# Assay: as §1, with “Z-021” for “WLS-039”, “to” for “to human gut”, “ERS12561820” for “ERS12561746”
# Details: 2 µM
row,Bacterial Biotransformation,SMILES
1,Compound NOT metabolized,CC(C)c1nc(CN(C)C(=O)N[C@H](C(=O)N[C@@H](Cc2ccccc2)C[C@H](O)[C@H](Cc2ccccc2)NC(=O)OCc2cncs2)C(C)C)cs1 [RITONAVIR]
2,Compound NOT metabolized,NC12CC3CC(CC(C3)C1)C2 [AMANTADINE]

# Assay: as §1, with “Z-023” for “WLS-039”, “to” for “to human gut”, “ERS12561822” for “ERS12561746”
# Details: 2 µM
row,Bacterial Biotransformation,SMILES
1,Compound metabolized,CC(C)c1nc(CN(C)C(=O)N[C@H](C(=O)N[C@@H](Cc2ccccc2)C[C@H](O)[C@H](Cc2ccccc2)NC(=O)OCc2cncs2)C(C)C)cs1 [RITONAVIR]
2,Compound NOT metabolized,NC12CC3CC(CC(C3)C1)C2 [AMANTADINE]

# Assay: as §1, with “Z-011” for “WLS-039”, “mouse” for “human”, “ERS12561811” for “ERS12561746”
# Details: 2 µM
row,Bacterial Biotransformation,SMILES
1,Compound metabolized,CC(C)c1nc(CN(C)C(=O)N[C@H](C(=O)N[C@@H](Cc2ccccc2)C[C@H](O)[C@H](Cc2ccccc2)NC(=O)OCc2cncs2)C(C)C)cs1 [RITONAVIR]
2,Compound NOT metabolized,NC12CC3CC(CC(C3)C1)C2 [AMANTADINE]

# Assay: as §1, with “WLS-010” for “WLS-039”, “ERS12561743” for “ERS12561746”
# Details: 2 µM
row,Bacterial Biotransformation,SMILES
1,Compound metabolized,CC(C)c1nc(CN(C)C(=O)N[C@H](C(=O)N[C@@H](Cc2ccccc2)C[C@H](O)[C@H](Cc2ccccc2)NC(=O)OCc2cncs2)C(C)C)cs1 [RITONAVIR]
2,Compound NOT metabolized,NC12CC3CC(CC(C3)C1)C2 [AMANTADINE]

# Assay: as §1, with “Z-006” for “WLS-039”, “mouse” for “human”, “ERS12561806” for “ERS12561746”
# Details: 2 µM
row,Bacterial Biotransformation,SMILES
1,Compound metabolized,CC(C)c1nc(CN(C)C(=O)N[C@H](C(=O)N[C@@H](Cc2ccccc2)C[C@H](O)[C@H](Cc2ccccc2)NC(=O)OCc2cncs2)C(C)C)cs1 [RITONAVIR]
2,Compound NOT metabolized,NC12CC3CC(CC(C3)C1)C2 [AMANTADINE]

# Assay: as §1, with “Z-025” for “WLS-039”, “rabbit” for “human”, “ERS12561824” for “ERS12561746”
# Details: 2 µM
row,Bacterial Biotransformation,SMILES
1,Compound metabolized,CC(C)c1nc(CN(C)C(=O)N[C@H](C(=O)N[C@@H](Cc2ccccc2)C[C@H](O)[C@H](Cc2ccccc2)NC(=O)OCc2cncs2)C(C)C)cs1 [RITONAVIR]
2,Compound metabolized,NC12CC3CC(CC(C3)C1)C2 [AMANTADINE]

# Details: human gut metagenome, 24 h, 2 µM
# Remark: another data set of the same source
row,Bacterial Biotransformation,SMILES
1,Compound NOT metabolized,CC(C)c1nc(CN(C)C(=O)N[C@H](C(=O)N[C@@H](Cc2ccccc2)C[C@H](O)[C@H](Cc2ccccc2)NC(=O)OCc2cncs2)C(C)C)cs1 [RITONAVIR]
2,Compound NOT metabolized,NC12CC3CC(CC(C3)C1)C2 [AMANTADINE]

# Details: human gut metagenome, 24 h, 2 µM
# Remark: another data set of the same source
row,Bacterial Biotransformation,SMILES
1,Compound NOT metabolized,CC(C)c1nc(CN(C)C(=O)N[C@H](C(=O)N[C@@H](Cc2ccccc2)C[C@H](O)[C@H](Cc2ccccc2)NC(=O)OCc2cncs2)C(C)C)cs1 [RITONAVIR]
2,Compound NOT metabolized,NC12CC3CC(CC(C3)C1)C2 [AMANTADINE]

# Assay: as §1, with “Z-022” for “WLS-039”, “mouse” for “human”, “ERS12561821” for “ERS12561746”
# Details: 2 µM
row,Bacterial Biotransformation,SMILES
1,Compound NOT metabolized,CC(C)c1nc(CN(C)C(=O)N[C@H](C(=O)N[C@@H](Cc2ccccc2)C[C@H](O)[C@H](Cc2ccccc2)NC(=O)OCc2cncs2)C(C)C)cs1 [RITONAVIR]
2,Compound metabolized,NC12CC3CC(CC(C3)C1)C2 [AMANTADINE]
